This note sets out measurements from paper PMC4747340, “A new class of small molecule estrogen receptor-alpha antagonists that overcome anti-estrogen resistance” (Oncotarget, 2015).

Common to all, as to assay: ER mutation analysis, ERE-TK-Luc reporter in transfected MDA-MB-231 cells
What all share (type): cell-based
Common to all, as to details: MDA-MB-231 transfected with mutant ER, E2 10 nM, 24 hr

The target in assay [1] is T1, ER Pro324Ala (Homo sapiens, UniProt P03372, P324A).
T1 construct: expressed in transfected cells; host or cells: MDA-MB-231
The source says:
(§1) B., C. Panels B and C show a comparison of the ER interaction of one of our original series of compounds (A7) (B) and one new compounds (48693-K/1) (C). ER is represented by gray ribbon and its residues interacting with the compounds are drawn with wireframe and labeled. […] The hydrogen bond interaction with ARG 394 is shown in green line. […] The cells were harvested for luciferase assays. Luciferase values are expressed as a percent of the +E2 vehicle control and are means ± SEMs of four wells. The data shown in panels D to G are representative of three independent experiments.
(§2) Subconfluent cells in 24-well dishes were transfected overnight with 0.25 μg of each indicated vector plus the ERE-TK-Luc reporter in serum-free DMEM containing Lipofectamine2000 (Life Technologies, Washington, DC). Total transfected DNA was kept constant by addition of control vector. The cells were washed, incubated in phenol red-free DMEM containing 5% charcoal-stripped serum (obtained from the Tissue Culture Shared Resource) (0.2 ml/well) ± E2 (10 nM) ± the indicated compound for 24-hr, and harvested for luciferase assays. For each assay condition was tested in quadrupicate. To monitor the transfection efficiency, cultures were co-transfected with plasmid pRSV-β-gal (Promega, Madison, WI) to visualize transfected cells by X-gal staining.

Assay [2] addresses T2, ER Ile386Ala (Homo sapiens, UniProt P03372, I386A).
T2 construct: expressed in transfected cells; host or cells: MDA-MB-231
Excerpt: as §1, §2

Assay [3] concerns the target T3, ER Leu387Ala (Homo sapiens, UniProt P03372, L387A).
T3 construct: expressed in transfected cells; host or cells: MDA-MB-231
Excerpt: as §1, §2

The target of assay [4] is T4, ER Ile386Ala+Leu387Ala (Homo sapiens, UniProt P03372, I386A/L387A).
T4 construct: expressed in transfected cells; host or cells: MDA-MB-231
Excerpt: as §1, §2

Each structure is given as a SMILES string.

T1 sequence (P03372 whole entry P324A): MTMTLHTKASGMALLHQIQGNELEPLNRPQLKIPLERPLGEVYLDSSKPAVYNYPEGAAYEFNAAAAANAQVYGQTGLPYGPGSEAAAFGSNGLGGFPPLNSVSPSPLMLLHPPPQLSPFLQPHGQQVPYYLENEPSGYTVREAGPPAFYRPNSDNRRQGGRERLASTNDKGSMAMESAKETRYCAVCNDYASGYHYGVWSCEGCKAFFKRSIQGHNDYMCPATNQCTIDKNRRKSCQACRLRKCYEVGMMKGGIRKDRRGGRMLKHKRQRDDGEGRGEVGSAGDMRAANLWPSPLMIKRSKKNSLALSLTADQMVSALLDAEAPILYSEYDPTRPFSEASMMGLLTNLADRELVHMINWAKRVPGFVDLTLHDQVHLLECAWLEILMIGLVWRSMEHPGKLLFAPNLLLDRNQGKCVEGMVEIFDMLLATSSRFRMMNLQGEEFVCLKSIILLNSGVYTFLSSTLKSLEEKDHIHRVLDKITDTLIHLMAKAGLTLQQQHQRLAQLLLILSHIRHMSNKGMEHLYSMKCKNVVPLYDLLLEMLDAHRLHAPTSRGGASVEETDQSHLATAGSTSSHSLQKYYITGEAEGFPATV
T2 sequence (P03372 whole entry I386A): as the sequence (P03372 whole entry P324A) above, with A324P, I386A counted along it
T4 sequence (P03372 whole entry I386A/L387A): as the sequence (P03372 whole entry P324A) above, with A324P, I386A, L387A counted along it
T3 sequence (P03372 whole entry L387A): as the sequence (P03372 whole entry P324A) above, with A324P, L387A counted along it

Take `O=C(CC(c1ccccc1)N1CCCCC1)c1ccccc1` (stereo not shown) [35446-L/1, 1,3-diphenyl-3-(piperidin-1-yl)propan-1-one]: the half-inhibitory concentration (IC50) in assay [1] was above 15 µM; in assay [2], 4 µM; in assay [3] it was 5 µM; in assay [4], above 15 µM.
